Results taken from PubChem BioAssay (NCI).
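Protocol summary: plate cells (96-well), add compound at 5 concentrations, incubate 48 h, interpolate endpoints linearly. The concentration for 50% growth inhibition is given as GI50. Definition used: TGI = concentration required for complete inhibition of growth.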

Tests used:
Assay in all cases: NCI anticancer screen, dose series, 48 h
NCI-H522 lung = tested on: NCI-H522 lung
UO-31 renal = tested on: UO-31 renal
SK-MEL-28 melanoma = tested on: SK-MEL-28 melanoma
KM12 colon = tested on: KM12 colon
LXFL 529 NSCLC = tested on: LXFL 529 NSCLC
LOX IMVI melanoma = tested on: LOX IMVI melanoma
HOP-92 NSCLC = tested on: HOP-92 NSCLC
OVCAR-3 ovarian = tested on: OVCAR-3 ovarian
HCT-15 colon = tested on: HCT-15 colon
HCT-116 colon = tested on: HCT-116 colon
OVCAR-8 ovarian = tested on: OVCAR-8 ovarian
MOLT-4 leukemia = tested on: MOLT-4 leukemia
HL-60(TB) leukemia = tested on: HL-60(TB) leukemia
SK-OV-3 ovarian = tested on: SK-OV-3 ovarian
CCRF-CEM leukemia = tested on: CCRF-CEM leukemia
EKVX NSCLC = tested on: EKVX NSCLC
OVCAR-4 ovarian = tested on: OVCAR-4 ovarian
SW-620 colon = tested on: SW-620 colon
OVCAR-5 ovarian = tested on: OVCAR-5 ovarian
COLO 205 colon = tested on: COLO 205 colon
RXF 393 renal = tested on: RXF 393 renal
M19-MEL melanoma = tested on: M19-MEL melanoma
SF-539 CNS = tested on: SF-539 CNS
DMS 273 small cell lung = tested on: DMS 273 small cell lung
KM20L2 colon = tested on: KM20L2 colon
CAKI-1 renal = tested on: CAKI-1 renal
SK-MEL-2 melanoma = tested on: SK-MEL-2 melanoma
SNB-78 CNS = tested on: SNB-78 CNS
HT29 colon = tested on: HT29 colon
SK-MEL-5 melanoma = tested on: SK-MEL-5 melanoma
DLD-1 colon = tested on: DLD-1 colon
SNB-75 CNS = tested on: SNB-75 CNS
ACHN renal = tested on: ACHN renal
HOP-62 NSCLC = tested on: HOP-62 NSCLC
MALME-3M melanoma = tested on: MALME-3M melanoma
U251 CNS = tested on: U251 CNS
M14 melanoma = tested on: M14 melanoma
NCI-H226 lung = tested on: NCI-H226 lung
786-0 renal = tested on: 786-0 renal
NCI-H460 lung = tested on: NCI-H460 lung
HOP-18 NSCLC = tested on: HOP-18 NSCLC
HCC-2998 colon = tested on: HCC-2998 colon
A549 NSCLC = tested on: A549 NSCLC
IGROV1 ovarian = tested on: IGROV1 ovarian
SNB-19 CNS = tested on: SNB-19 CNS
UACC-257 melanoma = tested on: UACC-257 melanoma
SN12C renal = tested on: SN12C renal
A498 renal = tested on: A498 renal
NCI-H23 lung = tested on: NCI-H23 lung
K-562 leukemia = tested on: K-562 leukemia
RXF-631 renal = tested on: RXF-631 renal
SF-268 CNS = tested on: SF-268 CNS
UACC-62 melanoma = tested on: UACC-62 melanoma
SF-295 CNS = tested on: SF-295 CNS
DMS 114 small cell lung = tested on: DMS 114 small cell lung
TK-10 renal = tested on: TK-10 renal

## O=C1C(=c2ccc(=C3C(=O)c4ccc([N+](=O)[O-])cc4[N+]3=O)cc2)N([O-])c2cc([N+](=O)[O-])ccc21
NCI-H522 lung
  GI50: > 100 µM
  TGI: > 100 µM
UO-31 renal
  GI50: > 100 µM
  TGI: > 100 µM
SK-MEL-28 melanoma
  GI50: > 100 µM
  TGI: > 100 µM
KM12 colon
  GI50: > 100 µM
  TGI: > 100 µM
LXFL 529 NSCLC
  GI50: > 100 µM
  TGI: > 100 µM
LOX IMVI melanoma
  GI50: > 100 µM
  TGI: > 100 µM
HOP-92 NSCLC
  GI50: > 100 µM
  TGI: > 100 µM
OVCAR-3 ovarian
  GI50: > 100 µM
  TGI: > 100 µM
HCT-15 colon
  GI50: > 100 µM
  TGI: > 100 µM
HCT-116 colon
  GI50: > 100 µM
  TGI: > 100 µM
OVCAR-8 ovarian
  GI50: > 100 µM
  TGI: > 100 µM
MOLT-4 leukemia
  GI50: > 100 µM
  TGI: > 100 µM
HL-60(TB) leukemia
  GI50: > 100 µM
  TGI: > 100 µM
SK-OV-3 ovarian
  GI50: > 100 µM
  TGI: > 100 µM
CCRF-CEM leukemia
  GI50: > 100 µM
  TGI: > 100 µM
EKVX NSCLC
  GI50: > 100 µM
  TGI: > 100 µM
OVCAR-4 ovarian
  GI50: > 100 µM
  TGI: > 100 µM
SW-620 colon
  GI50: > 100 µM
  TGI: > 100 µM
OVCAR-5 ovarian
  GI50: > 100 µM
  TGI: > 100 µM
COLO 205 colon
  GI50: > 100 µM
  TGI: > 100 µM
RXF 393 renal
  GI50: > 100 µM
  TGI: > 100 µM
M19-MEL melanoma
  GI50: > 100 µM
  TGI: > 100 µM
SF-539 CNS
  GI50: > 100 µM
  TGI: > 100 µM
DMS 273 small cell lung
  GI50: > 100 µM
  TGI: > 100 µM
KM20L2 colon
  GI50: > 100 µM
  TGI: > 100 µM
CAKI-1 renal
  GI50: > 100 µM
  TGI: > 100 µM
SK-MEL-2 melanoma
  GI50: > 100 µM
  TGI: > 100 µM
SNB-78 CNS
  TGI: > 100 µM
HT29 colon
  GI50: > 100 µM
  TGI: > 100 µM
SK-MEL-5 melanoma
  GI50: > 100 µM
  TGI: > 100 µM
DLD-1 colon
  GI50: > 100 µM
  TGI: > 100 µM
SNB-75 CNS
  TGI: 69.8 µM
ACHN renal
  GI50: > 100 µM
  TGI: > 100 µM
HOP-62 NSCLC
  TGI: > 100 µM
MALME-3M melanoma
  GI50: > 100 µM
  TGI: > 100 µM
U251 CNS
  GI50: > 100 µM
  TGI: > 100 µM
M14 melanoma
  GI50: > 100 µM
  TGI: > 100 µM
NCI-H226 lung
  GI50: > 100 µM
  TGI: > 100 µM
786-0 renal
  TGI: > 100 µM
NCI-H460 lung
  GI50: > 100 µM
  TGI: > 100 µM
HOP-18 NSCLC
  TGI: > 100 µM
HCC-2998 colon
  GI50: > 100 µM
  TGI: > 100 µM
A549 NSCLC
  GI50: > 100 µM
  TGI: > 100 µM
IGROV1 ovarian
  GI50: > 100 µM
  TGI: > 100 µM
SNB-19 CNS
  GI50: > 100 µM
  TGI: > 100 µM
UACC-257 melanoma
  GI50: > 100 µM
  TGI: > 100 µM
SN12C renal
  GI50: > 100 µM
  TGI: > 100 µM
A498 renal
  GI50: > 100 µM
  TGI: > 100 µM
NCI-H23 lung
  GI50: > 100 µM
  TGI: > 100 µM
K-562 leukemia
  GI50: > 100 µM
  TGI: > 100 µM

## O=[N+]([O-])c1cc(-c2nc(=S)[nH][nH]2)ccc1O
UO-31 renal
  TGI: > 100 µM
SK-MEL-28 melanoma
  TGI: > 100 µM
KM12 colon
  TGI: > 100 µM
LXFL 529 NSCLC
  TGI: > 100 µM
LOX IMVI melanoma
  TGI: > 100 µM
HCT-15 colon
  TGI: 31 µM
HCT-116 colon
  TGI: > 100 µM
HL-60(TB) leukemia
  TGI: > 100 µM
SK-OV-3 ovarian
  TGI: > 100 µM
CCRF-CEM leukemia
  TGI: > 100 µM
RXF-631 renal
  TGI: > 100 µM
EKVX NSCLC
  TGI: > 100 µM
OVCAR-4 ovarian
  TGI: > 100 µM
SW-620 colon
  TGI: 18.4 µM
OVCAR-5 ovarian
  TGI: > 100 µM
COLO 205 colon
  TGI: 35.9 µM
RXF 393 renal
  TGI: > 100 µM
M19-MEL melanoma
  TGI: > 100 µM
SF-539 CNS
  TGI: > 100 µM
DMS 273 small cell lung
  TGI: > 100 µM
SF-268 CNS
  TGI: > 100 µM
KM20L2 colon
  TGI: > 100 µM
CAKI-1 renal
  TGI: > 100 µM
SK-MEL-2 melanoma
  TGI: > 100 µM
SNB-78 CNS
  TGI: > 100 µM
HT29 colon
  TGI: > 100 µM
SK-MEL-5 melanoma
  TGI: > 100 µM
DLD-1 colon
  TGI: > 100 µM
ACHN renal
  TGI: > 100 µM
HOP-62 NSCLC
  TGI: > 100 µM
MALME-3M melanoma
  TGI: > 100 µM
U251 CNS
  TGI: > 100 µM
M14 melanoma
  TGI: > 100 µM
UACC-62 melanoma
  TGI: > 100 µM
SF-295 CNS
  TGI: > 100 µM
786-0 renal
  TGI: > 100 µM
NCI-H460 lung
  TGI: > 100 µM
HCC-2998 colon
  TGI: > 100 µM
A549 NSCLC
  TGI: > 100 µM
IGROV1 ovarian
  TGI: > 100 µM
DMS 114 small cell lung
  TGI: 86.8 µM
SNB-19 CNS
  TGI: > 100 µM
UACC-257 melanoma
  TGI: > 100 µM
SN12C renal
  TGI: > 100 µM
A498 renal
  TGI: > 100 µM
NCI-H23 lung
  TGI: > 100 µM
K-562 leukemia
  TGI: > 100 µM
TK-10 renal
  TGI: > 100 µM
